Consider 5 compounds from US9745279B2, “Sirtuin activator” (TOKIWA PHYTOCHEMICAL CO., LTD., priority 2011, dated 2017).

For one test, the system named is sirtuin. As to conditions: reported in Non-Patent Documents 4 and 5; cited from earlier work.
Test [1] deals with T1, SIRT1 enzyme (Homo sapiens, UniProt Q96EB6).
T1 construct: purchased BIOMOL International (via COSMO BIO CO., LTD.) AK-555 (kit); SE-239 (enzyme)
T1 sequence (Q96EB6 1-747): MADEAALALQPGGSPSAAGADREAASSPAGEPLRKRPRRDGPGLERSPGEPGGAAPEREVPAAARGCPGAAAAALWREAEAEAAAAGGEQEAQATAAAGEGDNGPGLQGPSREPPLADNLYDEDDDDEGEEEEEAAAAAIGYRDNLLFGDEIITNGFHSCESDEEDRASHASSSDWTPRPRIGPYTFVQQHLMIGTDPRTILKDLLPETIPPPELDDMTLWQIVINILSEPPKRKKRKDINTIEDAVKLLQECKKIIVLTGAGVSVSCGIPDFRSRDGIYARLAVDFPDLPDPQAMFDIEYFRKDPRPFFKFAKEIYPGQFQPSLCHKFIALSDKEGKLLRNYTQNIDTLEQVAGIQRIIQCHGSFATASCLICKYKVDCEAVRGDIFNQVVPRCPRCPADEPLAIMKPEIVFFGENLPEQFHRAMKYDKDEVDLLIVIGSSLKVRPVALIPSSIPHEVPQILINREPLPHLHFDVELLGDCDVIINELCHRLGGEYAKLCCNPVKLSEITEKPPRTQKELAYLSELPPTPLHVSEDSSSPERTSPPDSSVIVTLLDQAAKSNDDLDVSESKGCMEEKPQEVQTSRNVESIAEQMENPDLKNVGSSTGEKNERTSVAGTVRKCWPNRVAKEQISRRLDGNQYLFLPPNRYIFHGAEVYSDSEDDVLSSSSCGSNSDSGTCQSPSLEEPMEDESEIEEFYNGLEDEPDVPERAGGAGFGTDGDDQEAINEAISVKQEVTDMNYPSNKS
The test is described as follows: SIRT1 Activity Assay/Drug Discovery kit, Fluorescent: sirtuin activity acceleration by black ginger extracts and fractions (Example 3). In kind it is biochemical. To be noted: subject sample solution 500 μg/mL, 10 μL/well; FIGS. 1 and 2. How it is done:
The sirtuin activity was measured according to the attached protocol using SIRT1 Activity Assay/Drug Discovery kit, Fluorescent (AK-555, BIOMOL International, Plymouth Meeting, Pa., USA [COSMO BIO CO., LTD., Tokyo]).
All measurement reagents (preserved at −80° C.) were stationed on ice until use to melt the SIRT1 enzyme (SE-239) and 5× Developer II (KI-176) moderately. SIRT1 enzyme was diluted to 0.2 U/μL with an assay buffer (KI-286). Resveratrol and extracts and fragments of the black ginger obtained above were used as subject samples. Solutions of 500 μg/mL were prepared using purified water for hot water extracts and the water phase fraction, and using DMSO for other samples. A solution of 10 μL/well was used for each obtained subject sample. To the control was added either DMSO or purified water instead of a subject sample. The substrate Fluor de Lys-SIRT1 (KI-177; 5 mM) plus a coenzyme NAD^+ (KI-282; 50 mM) were diluted with an assay buffer (KI-286) to obtain a concentration that is 3.33 folds that of the final usage concentration, and used in an amount of 15 μL/well. […] Then, a reaction stop solution Developer II/2 mM nicotinamide was added at 50 μL/well, and the fluorescent probe generated from Developer II was measured (excited wave length 380 nm, fluorescent wave length 460 nm) by a fluorescent plate reader (Tecan Co., Infinite 200) within 60 minutes after the reaction stopped.

Test [2] addresses T1, SIRT1 enzyme. The test is described as follows: SIRT1 fluorescent activity assay: sirtuin activity acceleration by polyalkoxyflavonoid compounds (Example 6). The test is classed as biochemical. As to conditions: FIG. 8. How it is done: The sirtuin activity was measured according to a protocol similar to that of Example 3.
All measurement reagents (preserved at −80° C.) were stationed on ice until use to melt the SIRT1 enzyme (SE-239) and 5× Developer II (KI-176) moderately. SIRT1 enzyme was diluted to 0.2 U/μL with an assay buffer (KI-286). Resveratrol, Compounds 1 to 5 and nobiletin (Funakoshi Co.) were used as subject samples. […] To the control was added DMSO instead of a subject sample. The substrate Fluor de Lys-SIRT1 (KI-177; 5 mM) plus a coenzyme NAD^+ (KI-282; 50 mM) was diluted with an assay buffer (KI-286) to obtain a concentration that is 3.33 folds that of the final use concentration, and used in an amount of 15 μL/well. A subject sample solution (10 μL/well), SIRT1 enzyme solution (0.2 U/μL, 5 μL/well) and an assay buffer (10 μL/well) were added to the measurement microplate and pre-incubated at 37° C. for 5 minutes. The substrate solution that was heated preliminary at 37° C. was added at 25 μL/well, then, further incubated at 37° C. for 10 minutes. Then, a reaction stop solution Developer II/2 mM nicotinamide was added at 50 μL/well, and the fluorescent probe generated from Developer II was measured (excited wave length 360 nm, fluorescent wave length 460 nm) by a fluorescent plate reader (Tecan Co., Infinite 200) within 60 minutes after the reaction stopped.

Consider `O=C(/C=C/c1ccc(O)c(O)c1)c1ccc(O)cc1O` [butein, 3,4,2′,4′-tetrahydroxychalcone], for which, in the test with sirtuin, the sirtuin activation activity result is “weaker than resveratrol”.

With `O=C(/C=C/c1ccc(O)cc1)c1ccc(O)cc1O` [isoliquiritigenin, 4,2′,4′-trihydroxychalcone], the sirtuin activation activity result with sirtuin is recorded as “weaker than resveratrol”. On to `O=c1c(O)c(-c2ccc(O)c(O)c2)oc2cc(O)ccc12` [fisetin, 3,7,3′,4′-tetrahydroxyflavone], for which, in the test on sirtuin, the sirtuin activation activity entry is “weaker than resveratrol”.

As to `O=c1c(O)c(-c2ccc(O)c(O)c2)oc2cc(O)cc(O)c12` [quercetin, 3,5,7,3′,4′-pentahydroxyflavone], in the test on sirtuin, the sirtuin activation activity result is given as “weaker than resveratrol”.

With `Oc1ccc(C=Cc2cc(O)cc(O)c2)cc1` [resveratrol], the “sirtuin activity by comparison with the control value” on SIRT1 enzyme [1] is listed as “enhanced”. The sirtuin activation activity entry in the test on sirtuin is “effective in activating sirtuin”. For the same compound, the SIRT1 activity entry is reported as “accelerated” at SIRT1 enzyme [2] (concentrations of 100 μg/mL and 20 μg/mL); “almost no activity was observed” at SIRT1 enzyme [2] (low concentrations of 10 μg/mL and 2 μg/mL).
